Measurements reported in patent US9675646B2, “Tubular bioengineered smooth muscle structures” (WAKE FOREST UNIVERSITY HEALTH SCIENCES, priority 2012, dated 2017).
Where no end group is shown, it is not given here.

Test system: rabbit esophageal circular smooth muscle tissue constructs
Experiment: Real time isometric force generation of bioengineered esophageal smooth muscle constructs
Type: cell-based
Conditions: isometric force transducer, tissue bath 37° C., constructs taken off chitosan scaffold, stretch baseline set to zero
Text: Tubular esophageal tissue was tissue-engineered to mimic the mechanical and physiological function of a native esophagus. Several concentrically aligned esophageal circular smooth muscle tissue constructs were bioengineered using collagen hydrogel. Three-dimensional smooth muscle tissue constructs were bioengineered. Rabbit esophageal constructs were bioengineered by laying down 5×10^5 rabbit esophageal circular smooth muscle cells in collagen gel on a Sylgard-coated plate with a central post. The smooth muscle constructs were placed around a 2.5 cm long hollow chitosan tube and biodegradable surgical glue was applied between the smooth muscle constructs and along their circumference. The constructs were maintained around the scaffold in culture for 5 days. The constructs were taken off the scaffold and tested to determine cholinergic contraction in response to Acetylcholine (Ach) and relaxation in response to vasoactive intestinal peptide (VIP). An isometric force transducer (Harvard Apparatus, Holliston, Mass.) was used to record real time force generated by the constructs. The constructs were kept incubated in a warm tissue bath keeping the tissue samples at conditions of 37° C.±1° C. The bioengineered tissue constructs were taken off the scaffold at day 15 for force generation measurement. […]

Row | Compound | relaxation (change in force generation) (FIG. 2) [μN] | contraction (change in force generation) (FIG. 1) [μN]
1 | vasoactive intestinal peptide (HSDAVFTDNYTRLRKQMAVKKYLNSILN; ends and bridges not checked; UniProt P01282 125-152, looked up) [VIP, relaxant peptide used to test construct relaxation] | −35 | –
2 | CC(=O)OCC[N+](C)(C)C [Ach, Acetylcholine] | – | 45
